According to patent US7625883B1, “Glycerophosphoinositol derivatives as modulators of cytosolic A2 phospholipase” (I.R.B. Istituto di Ricerche Biotechnologiche S.R.L., priority 2000, dated 2009):
Marks after values point to notes of the source that are not given here.

Experiments:
cPLA2 = assay: release of arachidonic acid induced by the activation of cPLA2 in various cellular systems (overall statement); format: cell-based; conditions: all the cellular systems tested
Procedure: Evaluation of the effects of the L-α-glycero-phospho-D-mio-inositol autacoid coded example 4a on the release of arachidonic acid induced by cPLA2 in various cellular systems.
The cultures are stimulated to release arachidonic acid using various stimuli:
(§1) cPLA2-dependent mechanism, for example ATP, mastoparan, bombesin;
(§2) The cells are initially incubated with various concentrations of the compound under examination for 60 minutes or with a predefined concentration of 100 μM for various time intervals (15-180 minutes), washed two times with HBSS (Hank's Balanced Salt Solution, in the presence of Ca2+ and Mg2+ ions) added with 10 mM Hepes and 0.2% BSA—in absence of free fatty acids, pH 7.4 and stimulated with 100 μM ATP in the described buffer for 10 minutes at 37° C. The supernatant was collected in scintillation cuvettes for determination. The results are expressed as a percentage of the total release of [3H]-arachidonic acid.

FRTL5 cells [1] = assay: release of [3H]-arachidonic acid induced by ionomicin in FRTL5 cells (cPLA2-independent); format: cell-based, rat; conditions: for Release of [^3H]-arachidonic acid: then 10 μM ionomicin 30 minutes
Procedure: (§3) FRTL5, cell line of epithelial cells from rat thyroid grown in culture. Briefly, the cells were cultured in Coon's F12 medium modified according to Ham and supplemented with 5% bovine serum, 20 mM glutamine and a mixture of six hormones. (6H-thyrotropin, insulin, transferring, cortisol, somatostatin, glicil-L-istidil-L-lysine acetate) at 37° C. in a humidified atmosphere in 5% CO2, 95% air medium changed every 3-4 days.
cPLA2-independent mechanism, for example Ca2+ ionophore, ionomicin.
as §2
Preloaded cells were pre-incubated with various concentrations of the Example 4a for 60 minutes and then stimulated with 10 μM ionomicin for 30 minutes. The results are expressed as the mean±SE of two points in 3 separate experiments.

Swiss 3T3 fibroblasts [2] = assay: bombesin-dependent release of [3H]-arachidonic acid in Swiss 3T3 fibroblasts; format: cell-based; conditions: then bombesin 10 minutes
Procedure: as §1, §2
Preloaded cells were pre-incubated with various concentrations of the Example 4a for 60 minutes and then stimulated with bombesin for 10 minutes. The results are expressed as the mean±SE of two points in 3 separate experiments.

FRTL5 cells [3] = assay: release of [3H]-arachidonic acid from FRTL5 cells stimulated with ATP; format: cell-based, rat; conditions: ATP 100 μM 10 minutes
Procedure: as §3, with “days. […]” for “days.”
as §2
Preloaded cells are incubated with 100 μM of compound of the Example 4a for different time intervals and then stimulated with ATP (100 μM) for 10 minutes. The results are expressed as the mean±SE of two points in 3 separate experiments. The stimulation of control cells was generally 4-5 times the basal value in the corresponding intervals.
(§4) Preloaded cells were pre-incubated with various concentrations of the Example 4a for 60 minutes and then stimulated with 100 μM ATP for 10 minutes. The results are expressed as the mean±SE of two points in 3 separate experiments.

Swiss 3T3 fibroblasts [4] = assay: release of [3H]-arachidonic acid from Swiss 3T3 fibroblasts stimulated with ATP; format: cell-based
Procedure: as §1, §2, §4

Swiss 3T3 fibroblasts [5] = assay: mastoparan-dependent release of [3H]-arachidonic acid in Swiss 3T3 fibroblasts; format: cell-based
Procedure: as §1, §2
Preloaded radioactively labeled cells were pre-incubated with various concentrations of the Example 4a for 60 minutes and then stimulated with 100 μM mastoparan for 10 minutes. The results are expressed as the mean±SE of two points in 3 separate experiments.

Balb/c mice [6] = assay: plasma extravasation in the ear pinna of the mouse induced by peptide P6-11 of substance P; format: in vivo; conditions: P 6-11
Balb/c mice [7] = assay: plasma extravasation in the ear pinna of the mouse induced by substance P; conditions: compound 5 mg/kg endovenous
[8] = solubility in organic solvents; format: physicochemical
solubility in water = format: physicochemical
[9] = compound 5 mg/kg endovenous 30 minutes before
[10] = compound 10 mg/Kg endovenous 30 minutes before

Question: Which “effect on release of arachidonic acid induced by the activation of the cPLA2 (in words)” value (shortened to “effect on release … of the cPLA2 (in words)”) (cPLA2) does the source give for O=P([O-])(OCC(O)CO)OC1C(O)C(O)C(O)C(O)C1O.[Na+] [Example 4, L-α-glycerol-phospho-D-mio-inositol sodium salt] here?
Answer: more potent effect

Question: For O=P([O-])(OCC(O)CO)OC1C(O)C(O)C(O)C(O)C1O.[K+] [Example 4a, L-α-glycero-phospho-D-mio-inositol potassium salt], which “Release of [^3H]-arachidonic acid” value (FRTL5 cells [1]; 50 μM compound 60 minutes) is on record?
Answer: 720 ± 30

Question: And the “Release of [^3H]-arachidonic acid” value (FRTL5 cells [1]; 100 μM compound 60 minutes)?
Answer: 450 ± 14

Question: What about the “effect on release of arachidonic acid induced by stimuli not related to cPLA2 (in words)” value (FRTL5 cells [1]; calcium ionophore) of the same compound?
Answer: does not induce reduction of the release of arachidonic acid

Question: What about the “Release of [^3H]-arachidonic acid % basal” value (Swiss 3T3 fibroblasts [2]; 50 μM compound 60 minutes) of the same compound?
Answer: 120 ± 3 % basal

Question: And the “Release of [^3H]-arachidonic acid % basal” value (Swiss 3T3 fibroblasts [2]; 100 μM compound 60 minutes)?
Answer: 90 ± 4 % basal

Question: And the “Release of [^3H]-arachidonic acid % inhibition” value (FRTL5 cells [3]; 0.005 μM compound, 60 minutes preincubation)?
Answer: 10 ± 2 % inhibition

Question: And the “Release of [^3H]-arachidonic acid % inhibition” value (FRTL5 cells [3]; 0.01 μM compound, 60 minutes preincubation)?
Answer: 35 ± 5 % inhibition

Question: And the “Release of [^3H]-arachidonic acid % inhibition” value (FRTL5 cells [3]; 0.1 μM compound, 60 minutes preincubation)?
Answer: 41 ± 2 % inhibition

Question: And the “Release of [^3H]-arachidonic acid % inhibition” value (FRTL5 cells [3]; 1.0 μM compound, 60 minutes preincubation)?
Answer: 52 ± 3 % inhibition

Question: What about the “Release of [^3H]-arachidonic acid % inhibition” value (FRTL5 cells [3]; 10 μM compound, 60 minutes preincubation) of the same compound?
Answer: 60 ± 8 % inhibition

Question: And the “Release of [^3H]-arachidonic acid % inhibition” value (FRTL5 cells [3]; 50 μM compound, 60 minutes preincubation)?
Answer: 70 ± 4 % inhibition

Question: And the “Release of [^3H]-arachidonic acid % inhibition” value (FRTL5 cells [3]; 100 μM compound, 15 minutes of preincubation)?
Answer: 30 ± 4 % inhibition

Question: What about the “Release of [^3H]-arachidonic acid % inhibition” value (FRTL5 cells [3]; 100 μM compound, 30 minutes of preincubation) of the same compound?
Answer: 42 ± 5 % inhibition

Question: What about the “Release of [^3H]-arachidonic acid % inhibition” value (FRTL5 cells [3]; 100 μM compound, 60 minutes of preincubation) of the same compound?
Answer: 70 ± 4 % inhibition

Question: And the “Release of [^3H]-arachidonic acid % inhibition” value (FRTL5 cells [3]; 100 μM compound, 60 minutes preincubation)?
Answer: 92 ± 2 % inhibition

Question: What about the “Release of [^3H]-arachidonic acid % inhibition” value (FRTL5 cells [3]; 100 μM compound, 90 minutes of preincubation) of the same compound?
Answer: 72 ± 5 % inhibition

Question: And the “Release of [^3H]-arachidonic acid % inhibition” value (FRTL5 cells [3]; 100 μM compound, 120 minutes of preincubation)?
Answer: 71 ± 6 % inhibition

Question: And the “Release of [^3H]-arachidonic acid % inhibition” value (FRTL5 cells [3]; 100 μM compound, 180 minutes of preincubation)?
Answer: 92 ± 9 % inhibition

Question: And the “effect on release … of the cPLA2 (in words)” value (cPLA2)?
Answer: reduce in a time and concentration dependent manner the release of arachidonic acid

Question: What about the “Release of [^3H]-arachidonic acid % basal” value (Swiss 3T3 fibroblasts [4]; 50 μM compound 60 minutes, then 100 μM ATP 10 minutes) of the same compound?
Answer: 80 ± 9 % basal

Question: What about the “Release of [^3H]-arachidonic acid % basal” value (Swiss 3T3 fibroblasts [4]; 100 μM compound 60 minutes, then 100 μM ATP 10 minutes) of the same compound?
Answer: 70 ± 4 % basal

Question: And the “Release of [^3H]-arachidonic acid % basal” value (Swiss 3T3 fibroblasts [5]; 50 μM compound 60 minutes, then 100 μM mastoparan 10 minutes)?
Answer: 90 ± 3 % basal

Question: And the “Release of [^3H]-arachidonic acid % basal” value (Swiss 3T3 fibroblasts [5]; 100 μM compound 60 minutes, then 100 μM mastoparan 10 minutes)?
Answer: 80 ± 4 % basal

Question: What about the “Absorbance x10^−2” value (Balb/c mice [6]; compound 0.5 mg/kg endovenous (Table 8)) of the same compound?
Answer: 54 ± 4* x10^−2

Question: What about the “Absorbance x10^−2” value (Balb/c mice [6]; compound 1.5 mg/Kg endovenous (Table 8)) of the same compound?
Answer: 57 ± 7* x10^−2

Question: What about the “Absorbance x10^−2” value (Balb/c mice [6]; compound 5 mg/Kg endovenous (Table 8)) of the same compound?
Answer: 34 ± 8* x10^−2

Question: What about the “Absorbance (Evan's Blue, 620 nm)” value (Balb/c mice [6]; [9]) of the same compound?
Answer: 0.081 ± 0.027

Question: With C[N+](C)(C)CCO.O=P([O-])(OCC(O)CO)OC1C(O)C(O)C(O)C(O)C1O [Example 5, L-α-glycero-phospho-D-mio-inositol choline salt] as the compound, how does the “Absorbance (Evan's Blue, 620 nm)” value (Balb/c mice [7]) read?
Answer: 0.222 ± 0.010

Question: Which “Release of [^3H]-arachidonic acid % basal” value (Swiss 3T3 fibroblasts [5]; stimulus alone: 100 μM mastoparan 10 minutes, no test compound) does the source give for Mastoparan [reference compound] here?
Answer: 150 ± 12 % basal

Question: What does the source list for NCCCC[C@H](N)C(=O)O.O=P(O)(OCC(O)CO)OC1C(O)C(O)C(O)C(O)C1O [Example 6, L-α-glycero-phospho-D-mio-inositol lysine salt]?
Answer: Absorbance (Evan's Blue, 620 nm) (Balb/c mice [7]): 0.239 ± 0.015; Absorbance (Evan's Blue, 620 nm) (Balb/c mice [6]; [9]): 0.131 ± 0.022; Absorbance (Evan's Blue, 620 nm) (Balb/c mice [6]; [10]): 0.072 ± 0.010•

Question: For “L-α-glycero-phospho-D-mio-inositol zinc salt [Example 3]”, which “effect on release … of the cPLA2 (in words)” value (cPLA2) is on record?
Answer: more potent effect

Question: Which results are given for “L-α-glycero-phospho-D-mio-inositol calcium salt [Example 2]”?
Answer: Absorbance (Evan's Blue, 620 nm) (Balb/c mice [6]; [9]): 0.092 ± 0.021; Absorbance (Evan's Blue, 620 nm) (Balb/c mice [6]; [10]): 0.079 ± 0.022•

Question: With Nc1ncnc2c1ncn2[C@@H]1O[C@H](COP(=O)(O)OP(=O)(O)OP(=O)(O)O)[C@@H](O)[C@H]1O [ATP, reference compound] as the compound, how does the “Release of [^3H]-arachidonic acid % basal” value (Swiss 3T3 fibroblasts [4]; stimulus alone: 100 μM ATP 10 minutes, no test compound) read?
Answer: 149 ± 11 % basal

Question: With CCCC[N+](CCCC)(CCCC)CCCC.O=P([O-])(OCC(O)CO)OC1C(O)C(O)C(O)C(O)C1O [Example 8, L-α-glycero-phospho-D-mio-inositol tetrabutylammonium salt] as the compound, how does the “solubility in organic solvents” value ([8]; in DMF) read?
Answer: ≧10 mg/ml in DMF

Question: And the “solubility in organic solvents” value ([8]; in words)?
Answer: slightly soluble in organic solvents,

Question: What about the solubility in water (solubility in water) of the same compound?
Answer: >10000 µg/mL
